From ChEMBL document CHEMBL1140476 (Bioorg Med Chem, 2007) come the findings set out here.

Test [1] deals with Escherichia coli. The test is described as follows: Inhibition of Escherichia coli DnaB helicase at 6 uM.
Test [2] has as its system Escherichia coli. The test is described as follows: Inhibition of Escherichia coli DnaB helicase at 12 uM.
The subject of test [3] is Escherichia coli. The test is described as follows: Inhibition of Escherichia coli DnaB helicase at 30 uM.
Test [4] has as its system Escherichia coli. The test is described as follows: Inhibition of Escherichia coli DnaB helicase at 60 uM.
The nature of test [5]: Inhibition of Escherichia coli DnaB helicase in presence of 150 uM ATP.
The nature of test [6]: Inhibition of Escherichia coli DnaB helicase in presence of 1 mM ATP.
The test system of test [7] is Escherichia coli. As to the kind of experiment: Inhibition of Escherichia coli DnaB helicase-stimulated primer synthesis.

Active and inactive are the calls of the source. The calls are words filed in the database; no cut-off is given here.

On to `O=c1c(O)c(-c2cc(O)c(O)c(O)c2)oc2cc(O)cc(O)c12` [MYRICETIN], for which the Km (commonly the substrate concentration at which the rate is half of its maximum) in the test on Escherichia coli [1] was found to be 17 µM; in the test with Escherichia coli [2], 2.9 µM; in the test on Escherichia coli [3] it was 2.3 µM; in the test on Escherichia coli [4], 4.5 µM. In addition, the maximal velocity (Vmax) (commonly the rate approached at saturating substrate) in the test with Escherichia coli [1] was 1.64 µM/s; in the test with Escherichia coli [2], 1.06 µM/s; in the test on Escherichia coli [3], 0.61 µM/s; with Escherichia coli [4] it was 0.35 µM/s. Further, the IC50 (usually the point on the concentration scale where inhibition reaches its midpoint) in test [5] was determined as 10.2 µM; in test [6] it was 11.3 µM. Also, the outcome with Escherichia coli [7] was Active.
